Values quoted from earlier work, collected in patent US20200337300A1, “GREASE-LIKE GEL FOR REPELLING INSECTS AND PREVENTING UNDESIRABLE BEHAVIOR IN HOOFED ANIMALS” (Pacific Tech Industries, Inc., priority 2010, published 2020).

How the values were obtained:
[1] = for solubility in organic solvents: most organic solvents
[2] = pungency of the pure capsaicinoid

SMILES | solubility in organic solvents [1] | solubility in water [1] | Scoville heat units [2]
C=CCN=C=S [Allyl isothiocyanate] | soluble in most organic solvents | slightly soluble in water | –
COc1cc(CNC(=O)CCCC/C=C/C(C)C)ccc1O [Capsaicin, 8-methyl-N-vanillyl-6-nonenamide] | – | – | 16,000,000 Scoville heat units
COc1cc(CNC(=O)CCCCC/C=C/C(C)C)ccc1O [Homocapsaicin] | – | – | 8,600,000 Scoville heat units
COc1cc(CNC(=O)CCCCCCCC(C)C)ccc1O [Homodihydrocapsaicin] | – | – | 8,600,000 Scoville heat units
C=CCS[S+]([O-])CC=C (stereo not shown) [allicin] | soluble in most organic solvents | slightly soluble in water | –
